Assay results published in patent publication US11707539B2, “FAP-targeted radiopharmaceuticals and imaging agents, and uses related thereto” (Trustees of Tufts College, priority 2020, dated 2023).
Several values for one entry are separate records, joined by “and”; a condition that tells them apart may be missing. Equal entries are not always repeated. Where two headings read alike, the source gives them in different places. Where a SMILES comes first, the peptide text is derived from it.

Key:
Assay type in all cases: biochemical
[1] = biological target: recombinant human fibroblast activation protein (FAP) (Homo sapiens (Human), UniProt Q12884); assay: In vitro IC50 assay, fibroblast activation protein (Example 15)
Description: (§1) The purpose of this assay is to determine the IC50 of various inhibitors against recombinant human dipeptidyl peptidase IV (DPPIV), fibroblast activation protein (FAP) or prolyl oligopeptidase (PREP).
(§2) The assays are conducted in the following steps: • 1 Dissolve the compound in DMSO to a final concentration of 100 mM. From this, prepare a 1 mM stock at pH 7.5 in 50 mM Tris, 140 mM NaCl Buffer (FAP)/pH 7.5 in 25 mM Tris, 250 mM NaCl Buffer/pH 8.0 140 mM NaCl Buffer (PREP). • 2. Serial dilute (1:10) the 1 mM compound stocks prepared previously into the appropriate assay buffer (FAP: 50 mM Tris, 140 mM NaCl, pH 7.5/PREP: 25 mM Tris, 0.25 M NaCl, pH 7.5/DPPIV: 25 mM Tris, pH 8.0) to one row of a 96-well plate. • 3. […] Dilute the enzymes into their appropriate assay buffers. The final enzyme concentrations should be 0.1, 1.2, and 0.6 nM for DPPIV, FAP and PREP respectively. Add 180 μL to each well needed in columns 2-10. Column 1 (A,B,C) should be prepared with 200 ul of appropriate assay buffer as control. Column 1 (D,E,F,G,H) should be prepared with 20 ul of appropriate assay buffer and 180 ul enzyme as no inhibitor control. • 5. Add 20 μL of the compound of interest from the dilution plate prepared in step 2 to columns 2-10 of the assay plate where appropriate. Each sample should be tested in triplicate. Allow this to incubate for 10 minutes at room temperature, shaking the plate for the first two minutes. • 6. Add 10 μL of 20× substrate prepared in step 3 to each well and allow this to incubate for 15 minutes at room temperature, shaking the plate for the first two minutes. • 7. Read the fluorescence at λex: 380, λem: 460. (DPcore=[dAla|dSerGly]-[boroPro|Pro-nitrile], XXaa=alpha-amino acid)

[2] = biological target: recombinant human prolyl oligopeptidase (PREP) (Homo sapiens (Human), UniProt P48147); assay: In vitro IC50 assay, prolyl oligopeptidase (Example 15)
Description: as §1, §2

[3] = biological target: recombinant human dipeptidyl peptidase IV (DPPIV) (Homo sapiens (Human), UniProt P27487); assay: In vitro IC50 assay, dipeptidyl peptidase IV (Example 15); details: Gly-Pro-AMC, room temperature
Description: as §1, §2

[4] = Z-Gly-Pro-AMC, room temperature, read-out: FAP IC50
[5] = Z-Gly-Pro-AMC, room temperature, read-out: PREP IC50

Chain of recombinant human prolyl oligopeptidase (PREP) (P48147 whole entry): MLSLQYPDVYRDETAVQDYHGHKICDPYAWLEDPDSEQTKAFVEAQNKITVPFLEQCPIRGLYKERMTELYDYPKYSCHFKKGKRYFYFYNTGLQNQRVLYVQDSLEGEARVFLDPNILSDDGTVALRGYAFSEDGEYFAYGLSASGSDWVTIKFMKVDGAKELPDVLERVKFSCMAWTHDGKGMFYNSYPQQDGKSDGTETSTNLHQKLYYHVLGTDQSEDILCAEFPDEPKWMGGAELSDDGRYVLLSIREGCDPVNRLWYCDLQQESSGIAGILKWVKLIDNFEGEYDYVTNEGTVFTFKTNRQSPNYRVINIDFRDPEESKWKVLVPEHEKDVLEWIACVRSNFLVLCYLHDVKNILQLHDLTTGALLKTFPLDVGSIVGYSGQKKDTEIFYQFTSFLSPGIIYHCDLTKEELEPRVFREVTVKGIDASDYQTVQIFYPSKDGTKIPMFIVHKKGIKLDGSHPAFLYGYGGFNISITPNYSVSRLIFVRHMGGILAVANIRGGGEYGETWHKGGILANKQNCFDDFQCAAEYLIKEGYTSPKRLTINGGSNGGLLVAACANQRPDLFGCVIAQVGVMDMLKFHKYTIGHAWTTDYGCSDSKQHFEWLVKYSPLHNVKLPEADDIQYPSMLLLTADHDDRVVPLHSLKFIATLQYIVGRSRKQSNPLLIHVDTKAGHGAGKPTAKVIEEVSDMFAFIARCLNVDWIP
Chain of recombinant human fibroblast activation protein (FAP) (Q12884 whole entry): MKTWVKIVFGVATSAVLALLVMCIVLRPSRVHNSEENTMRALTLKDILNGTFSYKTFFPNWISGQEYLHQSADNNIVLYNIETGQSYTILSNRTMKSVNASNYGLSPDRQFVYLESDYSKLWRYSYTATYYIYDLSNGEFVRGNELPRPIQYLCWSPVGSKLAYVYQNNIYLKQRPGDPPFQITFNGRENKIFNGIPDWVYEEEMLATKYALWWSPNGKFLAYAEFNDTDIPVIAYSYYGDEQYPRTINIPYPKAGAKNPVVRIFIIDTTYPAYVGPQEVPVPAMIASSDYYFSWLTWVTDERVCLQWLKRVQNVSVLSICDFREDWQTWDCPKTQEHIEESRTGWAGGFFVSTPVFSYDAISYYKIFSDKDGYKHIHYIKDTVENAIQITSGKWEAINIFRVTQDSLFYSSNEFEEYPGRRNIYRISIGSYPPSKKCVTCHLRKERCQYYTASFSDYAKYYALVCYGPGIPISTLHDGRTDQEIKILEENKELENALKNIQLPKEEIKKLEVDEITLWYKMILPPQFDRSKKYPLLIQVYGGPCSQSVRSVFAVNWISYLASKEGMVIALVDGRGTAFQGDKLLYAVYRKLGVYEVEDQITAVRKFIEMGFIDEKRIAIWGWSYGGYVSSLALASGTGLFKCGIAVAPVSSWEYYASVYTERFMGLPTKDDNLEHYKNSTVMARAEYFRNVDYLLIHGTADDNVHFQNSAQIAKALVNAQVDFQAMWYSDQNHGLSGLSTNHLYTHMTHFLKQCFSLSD
Chain of recombinant human dipeptidyl peptidase IV (DPPIV) (P27487 whole entry): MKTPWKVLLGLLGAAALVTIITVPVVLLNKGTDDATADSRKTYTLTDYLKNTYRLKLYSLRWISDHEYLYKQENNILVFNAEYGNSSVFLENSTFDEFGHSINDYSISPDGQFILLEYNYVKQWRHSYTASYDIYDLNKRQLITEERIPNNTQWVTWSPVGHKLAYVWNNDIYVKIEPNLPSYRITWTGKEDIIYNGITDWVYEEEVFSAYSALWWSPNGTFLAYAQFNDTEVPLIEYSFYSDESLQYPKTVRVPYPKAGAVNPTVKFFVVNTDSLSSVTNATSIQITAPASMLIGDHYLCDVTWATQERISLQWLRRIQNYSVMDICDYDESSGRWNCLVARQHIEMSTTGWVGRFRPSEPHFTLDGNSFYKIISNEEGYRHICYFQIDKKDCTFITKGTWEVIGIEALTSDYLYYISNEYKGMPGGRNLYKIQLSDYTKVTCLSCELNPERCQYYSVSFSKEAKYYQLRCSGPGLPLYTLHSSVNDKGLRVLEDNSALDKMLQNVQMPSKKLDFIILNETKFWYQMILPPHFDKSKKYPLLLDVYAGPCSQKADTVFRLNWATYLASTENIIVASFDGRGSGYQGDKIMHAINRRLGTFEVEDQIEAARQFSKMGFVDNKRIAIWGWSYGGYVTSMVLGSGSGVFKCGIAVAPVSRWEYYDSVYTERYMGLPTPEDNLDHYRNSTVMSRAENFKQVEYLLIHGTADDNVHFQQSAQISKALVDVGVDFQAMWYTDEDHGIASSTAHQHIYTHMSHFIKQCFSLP

Molecule | IC50 [1, 4] | IC50 [2, 5] [nM] | IC50 [3] [nM] | IC50 [2] [nM] | IC50 [1] [nM]
C[C@@H](NC(=O)c1ccc(NC(=O)CCCCNC(=O)CN2CCN3CCN4CCN(CC2)CC(=O)[O][Lu]([O]C(=O)C3)[O]C(=O)C4)cc1)C(=O)N1CCC[C@H]1B(O)O [Compound 6590LU] | 0.4 nM | – | – | – | –
CC(C)[C@H](NC(=O)CN1CCN2CCN(CC(=O)O)CCN(CC1)CC(=O)[O][Cu][O]C(=O)C2)C(=O)N[C@H](C)C(=O)N1CCC[C@H]1B(O)O (stereo in doubt) [Compound 6508CU, DOTA[(Cu(II)]-Val-D-Ala-boroPro] | 26.2 nM | – | – | – | –
C[C@@H](NC(=O)c1ccc(NNC(=O)CCCCCC2=C(/C=C/C3=C(Oc4ccc(S(=O)(=O)O)cc4)C(=C/C=C4/N(CCCCS(=O)(=O)O)c5ccc(S(=O)(=O)O)cc5C4(C)C)/CCC3)C(C)(C)c3cc(S(=O)(=O)O)ccc32)cc1)C(=O)N1CCC[C@H]1B(O)O [Compound 4613C, IRDye 800CW-3860B] | 1.7 nM | 610 | – | – | –
C[C@@H](NC(=O)c1ccc(NN)nc1)C(=O)N1CCC[C@H]1B(O)O [Compound 3860, N-(6-hydrazinylnicotincarbonyl)-D-AlaboroPro] | – | – | > 100000 | – | –
CC(C)[C@H](NC(=O)CNC(=O)CC[C@H]1C(=O)[O][Lu]23[O]C(=O)CN4CCN(CCN1CCN(CC4)CC(=O)[O]2)CC(=O)[O]3)C(=O)N[C@H](C)C(=O)N1CCC[C@H]1B(O)O [Compound 6795LLU, (S)-DOTAGA-Gly-Val-Dala-boroPro (6795L-Lu Complex)] | – | – | – | 6390 | 20.1
C[C@@H](NC(=O)CN1CCN(CC(=O)O)CCN(CC(=O)O)CCN(CC(=O)O)CC1)C(=O)N1CCC[C@H]1B(O)O [Compound 4535, DOTA-D-ala-boroPro] | – | > 10000 | – | 10000 | 33
CC(C)[C@H](NC(=O)CNC(=O)CNC(=O)CN1CCN(CC(=O)O)CCN(CC(=O)O)CCN(CC(=O)O)CC1)C(=O)N[C@H](C)C(=O)N1CCCC1B1OC(=O)CN(C)CC(=O)O1 (stereo partly drawn) [Compound 6522M, DOTA-Gly-Gly-Val-D-alaboroPro-MIDA] (HELM PEPTIDE1{[O=C(O)CN1CCN(CC(=O)O)CCN(CC(=O)[*:2])CCN(CC(=O)O)CC1].G.G.V.[dA].[CN1CC(=O)OB(C2CCCN2[*:1])OC(=O)C1]}$$$$V2.0) | 280 nM | – | – | – | –
C[C@@H](NC(=O)c1ccc(NNC(=O)CN2CCN(CC(=O)O)CCN(CC(=O)O)CCN(CC(=O)O)CC2)nc1)C(=O)N1CCC[C@H]1B(O)O [Compound 4536] | – | 750 | – | – | –
C[C@@H](NC(=O)c1ccc(NNC(=O)CCCCCC2=C(/C=C/C3=C(Oc4ccc(S(=O)(=O)O)cc4)C(=C/C=C4/N(CCCCS(=O)(=O)O)c5ccc(S(=O)(=O)O)cc5C4(C)C)/CCC3)C(C)(C)c3cc(S(=O)(=O)O)ccc32)nc1)C(=O)N1CCC[C@H]1B(O)O [Compound 4613B, IRDye800CW-3860] | 8.8 nM and 10 nM | 390 | > 100000 | – | –
C[C@@H](NC(=O)c1ccc(NNC(=O)CCCNC(=O)CN2CCN3CCN4CCN(CC2)CC(=O)[O][Lu]([O]C(=O)C3)[O]C(=O)C4)nc1)C(=O)N1CCC[C@H]1B(O)O [Compound 6609LU] | 1 nM | 60 | – | – | –
(R)-DOTAGA(Ga)-Gly-Val-Dala-boroPro [Compound 6795DGA] | 310 nM | 9400 | > 100000 | – | –
CC(C)[C@H](NC(=O)CNC(=O)CC[C@@H]1C(=O)[O][Lu]23[O]C(=O)CN4CCN(CCN1CCN(CC4)CC(=O)[O]2)CC(=O)[O]3)C(=O)N[C@H](C)C(=O)N1CCC[C@H]1B(O)O [Compound 6795DLU, (R)-DOTAGA(Lu)-Gly-Val-Dala-boroPro] | – | – | > 100000 | – | –
C[C@@H](NC(=O)c1ccc(NNC(=O)CCCCCNC(=O)CN2CCN3CCN4CCN(CC2)CC(=O)[O][Ga]([O]C(=O)C3)[O]C(=O)C4)cc1)C(=O)N1CCC[C@H]1B(O)O [Compound 6486GA] | 81 nM | 4700 | > 100000 | – | –
CC(C)[C@H](NC(=O)CNC(=O)CC[C@H](C(=O)O)N1CCN(CC(=O)O)CCN(CC(=O)O)CCN(CC(=O)O)CC1)C(=O)N[C@H](C)C(=O)N1CCC[C@H]1B(O)O [Compound 6795D, (R)-DOTAGA-Gly-Val-D-ala-boroPro] | – | – | > 100000 | – | –
CC(C)[C@H](NC(=O)CNC(=O)CNC(=O)CN1CCN(CC(=O)O)CCN(CC(=O)O)CCN(CC(=O)O)CC1)C(=O)N[C@H](C)C(=O)N1CCC[C@H]1B(O)O [Compound 6522L, DOTA-Gly-Gly-Val-alaboroPro(L-ala)] (HELM PEPTIDE1{[O=C(O)CN1CCN(CC(=O)O)CCN(CC(=O)[*:2])CCN(CC(=O)O)CC1].G.G.V.[dA].[OB(O)[C@@H]1CCCN1[*:1]]}$$$$V2.0) | – | 7.6 | 3400 | – | > 100000
(R)-DOTAGA(Ga)-(Gly)3-Val-Dala-boroPro [Compound 6808DGA] | 89 nM | – | – | – | –
C[C@@H](NC(=O)c1ccc(NNC(=O)CCCCCNC(=O)CN2CCN3CCN4CCN(CC2)CC(=O)[O][Lu]([O]C(=O)C3)[O]C(=O)C4)nc1)C(=O)N1CCC[C@H]1B(O)O [Compound 6958LU] | 1.1 nM | 155 | – | – | –
C[C@@H](NC(=O)c1ccc(NNC(=O)CCCNC(=O)CN2CCN3CCN4CCN(CC2)CC(=O)[O][Ga]([O]C(=O)C3)[O]C(=O)C4)cc1)C(=O)N1CCC[C@H]1B(O)O [Compound 6489GA] | 39 nM | 3400 | > 100000 | – | –
C[C@@H](NC(=O)CN1CCN2CCN3CCN(CC1)CC(=O)[O][Gd]([O]C(=O)C2)[O]C(=O)C3)C(=O)N1CCC[C@H]1B(O)O [Compound 4535GD, DOTA[(Gd(III)]-D-alaboroPro] | 760 nM | > 10000 | – | – | –
C[C@@H](NC(=O)c1ccc(NNC(=O)CN2CCN3CCN4CCN(CC2)CC(=O)[O][Ga]([O]C(=O)C3)[O]C(=O)C4)cc1)C(=O)N1CCC[C@H]1B(O)O [Compound 5183GA] | 46.1 nM | – | – | – | –
CC(C)[C@H](NC(=O)CNC(=O)CNC(=O)CNC(=O)CNC(=O)CN1CCN(CC(=O)O)CCN(CC(=O)O)CCN(CC(=O)O)CC1)C(=O)N[C@H](C)C(=O)N1CCC[C@H]1B(O)O [Compound 6839, DOTA-(Gly)4-Val-D-ala-boroPro] (HELM PEPTIDE1{[O=C(O)CN1CCN(CC(=O)O)CCN(CC(=O)[*:2])CCN(CC(=O)O)CC1].G.G.G.G.V.[dA].[OB(O)[C@@H]1CCCN1[*:1]]}$$$$V2.0) | 21 nM | – | – | – | –
C[C@@H](NC(=O)c1ccc(NNC(=O)CN2CCN3CCN4CCN(CC2)CC(=O)[O][Gd]([O]C(=O)C3)[O]C(=O)C4)nc1)C(=O)N1CCC[C@H]1B(O)O [Compound 4536GD] | – | > 100000 | > 100000 | – | –
CC(C)[C@H](NC(=O)CNC(=O)CNC(=O)CN1CCN2CCN3CCN(CC1)CC(=O)[O][Ga]([O]C(=O)C2)[O]C(=O)C3)C(=O)N[C@H](C)C(=O)N1CCC[C@H]1B(O)O [Compound 6522GA-02, DOTA(Ga)-Gly-Gly-Val-D-alaboroPro] (HELM PEPTIDE1{[O=C1CN2CCN3CCN(CC(=O)[*:2])CCN(CC2)CC(=O)[O][Ga]([O]1)[O]C(=O)C3].G.G.V.[dA].[OB(O)[C@@H]1CCCN1[*:1]]}$$$$V2.0) | 575 nM | 19000 | > 100000 | – | –
CC(C)[C@H](NC(=O)CNC(=O)CNC(=O)CN1CCN2CCN3CCN(CC1)CC(=O)[O][Lu]([O]C(=O)C2)[O]C(=O)C3)C(=O)N[C@H](C)C(=O)N1CCC[C@H]1B(O)O [Compound 6522LU, DOTA(Lu)-Gly-Gly-Val-D-ala-boroPro] (HELM PEPTIDE1{[O=C1CN2CCN3CCN(CC(=O)[*:2])CCN(CC2)CC(=O)[O][Lu]([O]1)[O]C(=O)C3].G.G.V.[dA].[OB(O)[C@@H]1CCCN1[*:1]]}$$$$V2.0) | 26 nM | 19000 | > 100000 | – | –
CC(C)[C@H](NC(=O)CNC(=O)CNC(=O)CNC(=O)CCC(C(=O)O)N1CCN(CC(=O)O)CCN(CC(=O)O)CCN(CC(=O)O)CC1)C(=O)N[C@H](C)C(=O)N1CCC[C@H]1B(O)O (mixture of isomers) [Compound 6808, (R/S)-DOTAGA-(Gly)3-Val-Dala-boroPro] | – | – | – | – | 11.5
C[C@H](NC(=O)CN1CCN2CCN3CCN(CC1)CC(=O)[O][Gd]([O]C(=O)C2)[O]C(=O)C3)C(=O)N[C@H](C)C(=O)N1CCC[C@H]1B(O)O [Compound 6511Gd, DOTA[(Gd(III)]-Ala-D-Ala-boroPro] | 428 nM | – | – | – | –
C[C@@H](NC(=O)[C@H](CO)NC(=O)CN1CCN(CC(=O)O)CCN(CC(=O)O)CCN(CC(=O)O)CC1)C(=O)N1CCC[C@H]1B(O)O [Compound 6509, DOTA-Ser-D-Ala-boroPro] | 186 nM | – | – | – | –
